What was measured:
C57BL/6J mice = test: Tolerance induction to T-dependent antigen HEL in mice (anti-HEL titers by ELISA); format: in vivo, mouse; settings: for antibody suppression with varying amounts of ligand on HEL STALs: end of 44-day experiment, two challenges with immunogenic liposomes on days 15 and 30
Protocol: Whole blood (50 μL) was collected from mice via a retro-orbital bleed to obtain the serum after centrifugation (17,000 g, 1 min). Serum was aliquoted and stored at −20° C. Liposomes were delivered via the lateral tail vein in a volume of 200 μL. For studies involving a challenge with soluble (non-liposomal) antigen, mice were injected with 200 μg of HEL dissolved in HBSS and delivered intraperitoneally.
Maxisorp plates were coated (0/N, 4° C.) with the relevant protein (50 μL/well, 10 μg/mL) in PBS. NP4-7-BSA in PBS (Biosearch Technologies) was used to look for anti-NP antibodies. The following day, plates were washed twice in TBS-T (0.1% Tween 20) and blocked (1 hr, RT) with TBS-T containing 1% BSA. Serum was initially diluted between 20-10,000-fold and diluted in 2-3 fold serial dilutions eight times on the ELISA plate. Plates were incubated (1 hr, 37° C.) with serum (50 μL/well), washed four times, and incubated (1 hr, 37° C.) with the appropriate HRP-conjugated secondary antibodies (1:2000, Santa Cruz Biotechnologies). Following five washes, plates were developed (RT, 15 min) in 75 μL/well of TMB substrate (Thermo Fisher) and quenched with 75 μL/well of 2N H2SO4. Absorbance was measured at 450 nm and the endpoint titer was calculated as the dilution of serum that produced an absorbance 2-fold above background.
All liposomes were composed of a 60:35:5 molar ratio of distearoyl phosphatidylcholine (DSPC; Avanti Polar Lipids), cholesterol (Sigma), and pegylated lipids. The total mol % of pegylated lipids was always kept at 5%; made up of the appropriate combination of polyethyleneglycol(PEG2000)-distearoyl phosphoethanolamine (PEG-DSPE; Avanti Polar Lipids), ^BPANeuGc-PEG2000-DSPE, ^BPCNeuAc-PEG2000-DSPE, NP-PEG2000-DSPE or Protein-PEG2000-DSPE. […] The diameter of the liposomes were measured on a zetasizer (Malvern) and were consistently in the range of 100-130±30 nm. […]

murine CD22 = molecular target: T1, murine CD22 (Mus musculus, UniProt P35329); settings: higher affinity than natural ligand; cited from earlier work
T1 sequence (P35329 22-868): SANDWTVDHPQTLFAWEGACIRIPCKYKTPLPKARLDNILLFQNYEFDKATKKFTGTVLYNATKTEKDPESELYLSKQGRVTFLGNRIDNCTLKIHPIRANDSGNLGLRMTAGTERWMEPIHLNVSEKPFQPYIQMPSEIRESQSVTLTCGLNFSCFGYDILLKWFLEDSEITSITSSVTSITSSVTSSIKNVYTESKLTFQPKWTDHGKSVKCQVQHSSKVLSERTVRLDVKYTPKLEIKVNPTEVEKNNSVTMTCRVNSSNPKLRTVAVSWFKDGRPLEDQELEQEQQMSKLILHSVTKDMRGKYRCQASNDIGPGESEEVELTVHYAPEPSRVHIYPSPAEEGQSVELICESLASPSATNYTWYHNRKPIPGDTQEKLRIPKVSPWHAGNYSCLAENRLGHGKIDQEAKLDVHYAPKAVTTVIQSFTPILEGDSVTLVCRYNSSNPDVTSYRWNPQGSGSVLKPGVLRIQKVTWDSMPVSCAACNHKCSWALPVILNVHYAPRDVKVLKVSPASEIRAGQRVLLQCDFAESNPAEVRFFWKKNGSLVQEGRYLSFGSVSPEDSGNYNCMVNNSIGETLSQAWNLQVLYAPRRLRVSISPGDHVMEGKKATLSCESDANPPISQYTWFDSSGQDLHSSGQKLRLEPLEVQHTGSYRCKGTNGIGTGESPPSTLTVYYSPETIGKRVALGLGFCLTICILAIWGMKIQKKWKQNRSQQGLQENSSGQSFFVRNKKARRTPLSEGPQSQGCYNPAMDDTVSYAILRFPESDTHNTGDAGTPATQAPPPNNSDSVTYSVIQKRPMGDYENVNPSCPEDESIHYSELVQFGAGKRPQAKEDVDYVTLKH

Siglec-G = molecular target: T2, Siglec-G (Mus musculus, UniProt Q80ZE3); settings: cited from earlier work
T2 sequence (Q80ZE3 18-688): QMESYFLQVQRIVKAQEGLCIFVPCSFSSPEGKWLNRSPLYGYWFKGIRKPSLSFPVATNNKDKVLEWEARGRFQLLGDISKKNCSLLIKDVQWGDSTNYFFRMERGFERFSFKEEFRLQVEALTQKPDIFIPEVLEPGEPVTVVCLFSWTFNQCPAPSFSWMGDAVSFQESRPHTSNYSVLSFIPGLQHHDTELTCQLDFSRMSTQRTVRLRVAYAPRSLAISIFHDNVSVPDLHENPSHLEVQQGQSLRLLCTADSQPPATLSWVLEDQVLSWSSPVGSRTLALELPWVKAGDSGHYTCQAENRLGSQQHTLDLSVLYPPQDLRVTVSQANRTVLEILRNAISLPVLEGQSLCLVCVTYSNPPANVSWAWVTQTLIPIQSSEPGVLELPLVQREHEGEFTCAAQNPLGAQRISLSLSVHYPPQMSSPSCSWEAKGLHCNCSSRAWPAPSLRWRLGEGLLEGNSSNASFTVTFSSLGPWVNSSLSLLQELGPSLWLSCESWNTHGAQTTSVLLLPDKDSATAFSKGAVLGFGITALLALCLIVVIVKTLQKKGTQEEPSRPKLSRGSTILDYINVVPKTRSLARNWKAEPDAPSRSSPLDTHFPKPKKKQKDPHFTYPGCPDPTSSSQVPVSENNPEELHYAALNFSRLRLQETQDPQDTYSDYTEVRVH

| Compound | difference in EC50 between the two ligands (^BPANeuGc vs NeuGc) on HEL STALs (C57BL/6J mice; antibody suppression titration, FIG. 1E) | antibody suppression with varying amounts of ligand on HEL STALs (C57BL/6J mice) | affinity for murine CD22 relative to its natural ligand (NeuGcα2-6Galβ1-4GlcNAc) (murine CD22) [fold] | cross-reactivity with Siglec-G (Siglec-G) |
| --- | --- | --- | --- | --- |
| 9-N-biphenylacetyl-NeuGcα2-6Galβ1-4GlcNAc [^BPANeuGc] | two orders of magnitude difference | dose-dependent effect on antibody suppression | 200 | only a small degree of cross-reactivity |
| CC(=O)NC1C(O)OC(CO)C(OC2OC(COC3(C(=O)O)CC(O)C(NC(=O)CO)C(C(O)C(O)CO)O3)C(O)C(O)C2O)C1O (centres unmarked) [NeuGc, NeuGcα2-6Galβ1-4GlcNAc] | – | dose-dependent effect on antibody suppression | – | – |
